Read-outs that look alike come from different tables or passages of the source.
Key:
[1] = Antihepatotoxic effect: duration of hexobarbital sleep of the rat after liver damage by CCl4; conditions: rat, in vivo
Method: (§1) The compounds to be tested are administered 1 hour prior to the administration of CCl4 orally in a liquid volume of 10 ml/kg.
(§2) The antihepatotoxic effect of the compounds to be tested (sodium salts in aqueous solution) is determined by the reduction of the prolongation of sleeping period caused by the CCl4 liver cell damage in the groups treated, as compared with the prolongation of the sleeping period of the CCl4 control group (=100%). […]

[2] = tested on: liver damage by CCl4; assay: as above; conditions: Rattus norvegicus, po; for ED25: read-out: ED25 antihepatotoxic effect (shortens hexobarbital narcosis by 25%); for ED50: read-out: ED50 antihepatotoxic effect (shortens hexobarbital narcosis by 50%)
Method: as §1, §2

[3] = Influence on pancreatic secretion of the narcotized rat; type: in vivo, rat (male Sprague-Dawley); conditions: in vivo, LD50 mouse i.p. / ED50 rat i.d.
From the text: (§3) Male Sprague-Dawley rats (body weight from 250 to 300 g) are narcotized with 1.2 g/kg urethane i.m. Then the abdominal cavity is opened medially, the bile duct is ligatured shortly above the place where it leads into the duodenum and also near to the hepatic duct, and both sections are catheterized towards the liver.
(§4) As in the rat all the pancreatic ducts lead out into the central section of the bile duct; it is possible in this way to discharge the pancreatic secretion separately from the distal (ligatured) section and the bile separately from the proximal section of the bile duct.
(§5) The quantities of pancreatic juice and bile juice obtained are measured at intervals of 30 minutes over a period from 2 hours before to 3 hours after the intraduodenal (V. jugularis externa) administration of the compounds to be tested (quantity of liquid administered 5 ml/kg).
(§6) The body temperature of the animals is maintained at 36° to 38° C. by means of electric blankets and radiation; the temperature is monitored rectally.
(§7) The liquid volumes of the 30-minute fractions after the administration of the substance are related in each case to the quantity of bile or pancreatic juice secreted prior to the application of the substance (=100%, mean of the last two measurements). The maximum percentage increase in the pancreatic or bile secretion is represented in dependence upon dose, and from this the ED50 is determined by interpolation.

[4] = tested on: pancreatic secretion; assay: as above; type: in vivo, rat (male Sprague-Dawley); conditions: 0.5 h, narcotized rat, i.d., liquid volume
From the text: as §3, §4, §5, §6, §7

[5] = Determination of toxicity (lethal action on the mouse after intraperitoneal application); type: in vivo; conditions: in vivo, ip
Method: The toxicity investigations are carried out on female NMRI mice (body weight 22 to 26 g). The animals (5 animals per dose) are given food and water ad lib. Different doses of the substances are administered intraperitoneally. The duration of observation is 14 days. The LD50, i.e. the dose at which 50% of the animals die, is determined graphically from the dose/effect curve.

[6] = Antiulcerogenic (stomach-protective) action, pylorus ligature and acetylsalicylic acid; type: in vivo, rat (female); conditions: in vivo, LD50 mouse i.p. / ED50 rat i.d.
Method: (§8) The ulcer provocation is carried out on rats which have been made to fast for 24 hours (female, 180 to 200 g) by ligature of the pylorus (under ether narcosis) and the oral application of 100 mg/10 ml/kg acetylsalicylic acid. The administration of the substances was carried out intraduodenally (2.5 ml/kg) immediately after the ligature of the pylorus. The closure of the wound was carried out by means of Michel clamps. 4 hours after this, the animals were autopsied (while inebriated with ether) by dislocation of the atlas, and the stomach was resected. The stomach, opened longitudinally, is fixed on a cork board and, using a stereomicroscope with an enlargement of 10×, the number and size (=diameter) of any ulcers present were determined. The product of the degree of severity (according to the following scale of points) and the number of ulcers was used as the individual ulcer index.
(§9) As a measure of antiulcerogenic effect the reduction in the mean ulcer index of each treated group, as compared with that of the control group (=100%), was used.

[7] = tested on: stomach ulcer; assay: as above; type: in vivo, rat (female); conditions: 4 h, rat, intraduodenally, read-out: ED50 antiulcerogenic action (dose which reduces the mean ulcer index by 50%)
Method: as §8, §9

[8] = tested on: glucose formation from lactate and pyruvate in isolated perfused liver; assay: Inhibition of the formation of glucose from lactate and pyruvate in the isolated perfused rat liver; design: species or system rat (male Sprague-Dawley); conditions: for Glucose formation, % change: isolated perfused liver of fasting rats; for ED50 inhibition of formation of glucose from lactate and pyruvate: from 4 concentrations, 0.02 to 1.00 mmol/liter
Method: For this purpose young male Sprague-Dawley rats (160 to 200 g) are used. The rats are kept in cages of up to 5 animals in a temperature-controlled room (23° C.) with a fixed day/night rhythm (12/12 hours).
Food is withheld from the animals for from 20 to 22 hours prior to the operation. They are allowed to take water ad lib. The operation and the perfusion of the liver are carried out using the technique of R. Scholz et al. [Eur. J. Biochem. 38 (1973) 64 to 72]. The perfusion liquid used is Krebs-Henseleit bicarbonate buffer (pH 7.4), which is saturated with an oxygen/carbon dioxide mixture (95/5) and contains 1.6 mmol/liter of L-lactate and 0.2 mmol/liter of pyruvate. The perfusion liquid is pumped into the liver via a cannula inserted into the portal vein. The effluent perfusion liquid is collected via a cannula inserted into the Vena cava. The liver is perfused for about 2 hours. The test compounds are infused for 16 minutes each from the 32nd to the […] after the perfusion in increasing concentrations (0.02 to 1.00 mmol/liter).
Samples of the effluent perfusion liquid are collected at one-minute intervals and analyzed for glucose, lactate and pyruvate (using standard enzymatic methods). The percentages shown in Table VIII relate to the condition occurring before and after the administration of the compounds, the changes caused solely by lactate and pyruvate being set as being equal to 100%.

[9] = TQ LD50/ED25, antihepatotoxic effect, LD50 mouse i.p. / ED25 rat p.o., Table V
[10] = TQ LD50/ED50, antihepatotoxic effect, LD50 mouse i.p. / ED50 rat p.o., Table V
[11] = Table VII, read-out: TQ [LD50/ED50], pancreatic secretion
[12] = 30 min fraction, Table VII, read-out: ED50 pancreatic secretion (dose which brings about an increase in pancreatic secretion of a maximum of 50%)
[13] = Table IV, read-out: TQ (LD50/ED50), antiulcerogenic action
[14] = 0.2 mmole/liter in the perfusate, Table VIII
[15] = TQ LD50/ED25, antihepatotoxic effect, LD50 mouse i.p. / ED25 rat p.o., Table XI
[16] = Table X, read-out: TQ LD50/ED50, pancreatic secretion
[17] = 30 minute fraction, Table X, read-out: ED50 pancreatic secretion (dose which brings about an increase in pancreatic secretion by a maximum of 50%)
[18] = Table IX, read-out: TQ LD50/ED50, antiulcerogenic action

| SMILES | selectivity ratio [1, 9] | selectivity ratio [1, 10] | ED25 [2] | ED50 [2] | selectivity ratio [3, 11] | ED50 [4, 12] | LD50 at 336 h ([5]; mouse, Table IV) | selectivity ratio [6, 13] | ED50 ([7]; Table IV) | selectivity ratio [3, 16] | ED50 [4, 17] | LD50 at 336 h ([5]; mouse i.p., Table IX) | selectivity ratio [6, 18] | ED50 ([7]; Table IX) | also measured |
| --- | --- | --- | --- | --- | --- | --- | --- | --- | --- | --- | --- | --- | --- | --- | --- |
| O=C(O)CCCN(C(=O)c1ccc(Cl)cc1)c1ccc(-c2ccccc2)cc1 [Serial No. 23, 4-[p-chloro-N-(biphenyl-4-yl)benzamido]butyric acid] | 8 | 5.5 | 15 mg/kg | 22 mg/kg | 120 | 1 mg/kg | 120 mg/kg | ~8 | ~15 mg/kg |  |  |  |  |  |  |
| O=C(O)CCCCCN(C(=O)c1ccc(Cl)cc1)c1ccccc1-c1ccccc1 [Serial No. 24, 6-[p-chloro-N-(biphenyl-2-yl)benzamido]caproic acid] | ~14.4 | 9.3 | ~9 mg/kg | 14 mg/kg |  |  | 130 mg/kg | ~3.3 | ~40 mg/kg |  |  |  |  |  | Glucose formation, % change [8, 14]: -99%; ED50 inhibition of formation of glucose from lactate and pyruvate ([8]; Table VIII): 23 µg/mL |
| O=C(O)CCCN(C(=O)c1cccc(C(F)(F)F)c1)c1ccccc1-c1ccccc1 [Serial No. 25, 4-[m-trifluoromethyl-N-(biphenyl-2-yl)benzamido]butyric acid] | 11 | 3.7 | 10 mg/kg | 30 mg/kg | 110 | 1 mg/kg | 110 mg/kg | 11 | 10 mg/kg |  |  |  |  |  | Glucose formation, % change [8, 14]: -77%; ED50 inhibition of formation of glucose from lactate and pyruvate ([8]; Table VIII): 34 µg/mL |
| O=C(O)CCCN(C(=O)c1ccc(F)cc1)c1ccccc1-c1ccccc1 [Serial No. 26, 4-[p-fluoro-N-(biphenyl-2-yl)benzamido]butyric acid] | 131 | 75 | 1.6 mg/kg | 2.8 mg/kg | 84 | 2.5 mg/kg | 210 mg/kg | ~3.8 | ~55 mg/kg |  |  |  |  |  | Glucose formation, % change [8, 14]: -51%; ED50 inhibition of formation of glucose from lactate and pyruvate ([8]; Table VIII): 76 µg/mL |
| O=C(O)CCCN(C(=O)c1ccc(Cl)cc1)c1ccccc1-c1ccccc1 [Serial No. 31, 4-[p-chloro-N-(biphenyl-2-yl)benzamido]butyric acid] | > 180 | 51.4 | < 1 mg/kg | 3.5 mg/kg | 180 | 1 mg/kg | 180 mg/kg | 5.1 | 35 mg/kg |  |  |  |  |  | Glucose formation, % change [8, 14]: -79%; ED50 inhibition of formation of glucose from lactate and pyruvate ([8]; Table VIII): 43 µg/mL |
| O=C(O)CCCCN(C(=O)c1ccccc1O)c1ccccc1-c1ccccc1 [Serial No. 32, 5-[o-hydroxy-N-(biphenyl-2-yl)benzamido]valeric acid] |  |  |  |  |  |  | > 200 mg/kg | > 20 | < 10 mg/kg |  |  |  |  |  |  |
| COc1ccc(N(CCCC(=O)O)C(=O)c2ccc(Cl)cc2)cc1-c1ccccc1 [Serial No. 35, 4-[p-chloro-N-(6-methoxybiphenyl-3-yl)benzamido]butyric acid] |  |  |  |  | 80 | 1.5 mg/kg | 120 mg/kg | > 12 | < 10 mg/kg |  |  |  |  |  |  |
| O=C(O)CCCN(C(=O)c1ccc(Cl)cc1)c1cccc2ccccc12 [Serial No. 38, 4-{p-chloro-[N(α-naphthyl)]benzamido}butyric acid] |  |  | ~5 mg/kg | 40 mg/kg |  |  |  |  |  | 56 | 2.5 mg/kg |  |  |  | Glucose formation, % change ([8]; 0.2 mmol/liter in the perfusate, Table XIII): -48%; ED50 inhibition of formation of glucose from lactate and pyruvate ([8]; Table XIII): 81 µg/mL; selectivity ratio [1, 15]: ~28; selectivity ratio ([1]; TQ LD50/ED50, antihepatotoxic effect, LD50 mouse i.p. / ED50 rat p.o., Table XI): 3.5; LD50 at 336 h ([5]; mouse i.p., Table X): 140 mg/kg |
| CCOc1ccc(N(CCCC(=O)O)C(=O)c2ccc(Cl)cc2)c2ccccc12 [Serial No. 43, 4-{p-chloro-[N-(4-ethoxy-1-naphthyl)]benzamido}butyric acid] |  |  |  |  |  |  |  |  |  | 100 | 0.7 mg/kg | 70 mg/kg | 7 | 10 mg/kg |  |
| CC(CCC(=O)O)N(C(=O)c1ccc(Cl)cc1)c1cccc2ccccc12 (stereo not drawn) [Serial No. 45, 4-{p-chloro-[N-(α-naphthyl)]benzamido}valeric acid] |  |  | ~15 mg/kg |  |  |  |  |  |  | ~180 | ~1 mg/kg | 180 mg/kg | > 18 | < 10 mg/kg | selectivity ratio [1, 15]: ~12 |
| CC1(C)[C@@H](OC(=O)CCC(=O)O)CC[C@]2(C)[C@H]3C(=O)C=C4[C@@H]5C[C@@](C)(C(=O)O)CC[C@]5(C)CC[C@@]4(C)[C@]3(C)CC[C@@H]12 [compound 19] |  |  |  |  |  |  | 120 mg/kg | 2.4 | 50 mg/kg |  |  |  |  |  |  |
| CC(C)C(=O)N(CCCCC(=O)O)c1cccc2ccccc12 [compound 51] |  |  |  |  |  |  |  |  |  |  |  | > 200 mg/kg | ~20 | < 10 mg/kg |  |
| CCC(=O)N(CCCC(=O)O)C1CCCc2cc(OC)ccc21 (centres unmarked) [compound 52] |  |  |  |  |  |  |  |  |  | > 200 | < 1 mg/kg | > 200 mg/kg | > 20 | < 10 mg/kg |  |
| O=C(O)CCCN(C(=O)c1ccc(Cl)c(Cl)c1)c1ccc2c(c1)CCC2 [compound 53] |  |  | 10 mg/kg |  |  |  |  |  |  | > 180 | < 1 mg/kg | 180 mg/kg | > 18 | < 10 mg/kg | selectivity ratio [1, 15]: 18 |
| O=C(O)CCCCN(C(=O)c1ccc(Cl)cc1)c1ccc2c(c1)CCC2 [compound 54] |  |  |  |  |  |  |  |  |  |  |  | 160 mg/kg | ≤ 16 | ≥ 10 mg/kg |  |

From US4243678A, “Acylhydrocarbylaminoalkanoic acids, compositions and uses” (Byk Gulden Lomberg Chemische Fabrik GmbH, priority 1977, dated 1981)
